In PubChem BioAssay (NCI):
Several values for one entry are separate records, joined by “and”; a condition that tells them apart may be missing. Equal entries are not always repeated.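 These data come from cells grown in 96-well plates and exposed to compound for 48 hours at five concentrations. GI50: concentration for 50% inhibition of growth. TGI: total growth inhibition.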

Tests used:
Assay in all cases: growth of human tumour cells (NCI), 48 h
[1] = tested on: SK-MEL-28 melanoma
[2] = tested on: HCC-2998 colon
[3] = tested on: M14 melanoma
[4] = tested on: MDA-MB-435
[5] = tested on: RXF 393 renal
[6] = tested on: T-47D breast
[7] = tested on: COLO 205 colon
[8] = tested on: K-562 leukemia
[9] = tested on: SN12C renal
[10] = tested on: MCF7 breast

Row | Compound | TGI [1] [µM] | TGI [2] | TGI [3] [µM] | TGI [4] [µM] | TGI [5] | TGI [6] [µM] | TGI [7] [µM] | TGI [8] | TGI [9] [µM] | TGI [10] | GI50 [1] [µM] | GI50 [5] [µM] | GI50 [8] [nM] | GI50 [9] [µM] | GI50 [10]
1 | CCOC(=O)NC(Nc1ccc(F)cc1F)(C(F)(F)F)C(F)(F)F | > 100 | > 100 µM | > 100 | > 100 | > 100 µM | > 100 | > 100 | > 100 µM | > 100 | > 100 µM | – | – | – | – | –
2 | COc1ccc2[nH]c3ccc4cc[n+](CCN5CCC(C6CCN(CC[n+]7ccc8ccc9[nH]c%10ccc(OC)cc%10c9c8c7)CC6)CC5)cc4c3c2c1 | > 50 | 14.2 µM and > 100 µM | > 50 | > 50 | 50 µM and 10.8 µM | 50 | > 50 | 1.41 µM and 7.67 µM | 50 | 50 µM and > 28.3 µM | > 50 | 38.1 | 164 | 8.76 | 313 nM and 488 nM
3 | Nc1cc(OCC2CCCCC2)nc(N)n1 | > 100 | > 100 µM | > 100 | > 100 | > 100 µM | – | > 100 | > 100 µM | > 100 | – | – | – | – | – | –
4 | N=c1oc2cc(O)ccc2cc1C(=O)Nc1ccccn1 | > 100 | > 100 µM | > 100 | > 100 | 99.7 µM | > 100 | 32.8 | > 100 µM | > 100 | > 100 µM | – | – | – | – | –
5 | CN(C)CCNC(=O)c1cccc2c1C(=O)c1ccccc1C2=O | > 100 | > 91.6 µM | – | – | > 100 µM | – | 34.2 | 54.5 µM | > 100 | > 79 µM | – | – | – | – | –
6 | CN(C)N1C(=O)C(=O)N(c2cccc3ccccc23)C1=O | > 10 | > 10 µM | > 10 | > 10 | > 10 µM | > 10 | > 10 | > 10 µM | > 10 | > 10 µM | – | – | – | – | –
7 | O=C(Nc1ccccc1C(=O)NCc1ccccc1)/C(=C/c1ccccc1O)NC(=O)c1ccccc1 | > 100 | > 100 µM | > 100 | > 100 | > 100 µM | > 100 | > 100 | > 100 µM | > 100 | > 100 µM | – | – | – | – | –
8 | CC(C)(C)OC(=O)NC(CSCc1ccc(C(=O)c2ccccc2)cc1)C(=O)N1CCN(CCCCN2c3ccccc3Sc3cc(N=[N+]=[N-])ccc32)CC1 (stereo not given) | > 100 | > 100 µM | > 100 | > 100 | > 100 µM | > 100 | > 100 | > 100 µM | > 100 | > 100 µM | – | – | – | – | –
9 | COC(=O)c1ccc(OCCn2nnc(C(=O)NN)c2C(=O)NN)cc1 | > 100 | > 100 µM | > 100 | > 100 | – | – | > 100 | > 100 µM | > 100 | > 100 µM | – | – | – | – | –
10 | CC(C)CC1c2[nH]c3ccccc3c2C[C@H]2C(=O)NC(Cc3c[nH]c4ccccc34)C(=O)N12 (stereo not given in full) | 40.5 | – | 29 | 34.4 | 22.5 µM | 42.5 | 34.8 | 61.5 µM | 31.1 | > 100 µM | – | – | – | – | –
11 | COP(=O)(OC)C(N)Cc1c[nH]c2ccccc12 (stereo not given) | > 100 | > 100 µM | > 100 | > 100 | – | > 100 | > 100 | > 100 µM | > 100 | > 100 µM | – | – | – | – | –
12 | COc1ccc2c(c1)/C(=C\c1c(Cl)nc3n1CCS3)C(=O)N2 | > 100 | 8.31 µM | > 100 | 4.82 | 9.91 µM | 32.7 | 10.9 | > 100 µM | 53.3 | 48.5 µM | – | – | – | – | –
13 | Cc1cn(S(=O)(=O)c2ccccc2)c2c(OCc3ccccc3)cc([N+](=O)[O-])cc12 | > 100 | > 100 µM | > 100 | > 100 | > 100 µM | > 100 | > 100 | > 100 µM | > 100 | > 100 µM | – | – | – | – | –
14 | Cc1cc(=O)[nH]c2cc(NC(=O)C(C)NC(=O)C(C)NC(=O)C(C)NC(=O)OC(C)(C)C)ccc12 (stereo not given) | > 15 | > 15 µM | > 15 | > 15 | > 15 µM | > 15 | > 15 | > 15 µM | > 15 | > 15 µM | – | – | – | – | –
15 | O=C(Cn1c2ccc(Br)cc2c2nc3ccccc3nc21)NCc1ccccc1 | > 100 | > 100 µM | > 100 | > 100 | 26.9 µM | 18.6 | > 100 | > 100 µM | > 100 | – | – | – | – | – | –
16 | Cc1cccc2c(=O)c3cccc([C@H](C)C(=O)O)c3oc12 | > 100 | > 100 µM | > 100 | > 100 | – | > 100 | > 100 | > 100 µM | > 100 | – | – | – | – | – | –
17 | O=c1c(NCc2ccccc2)c(C2(c3ccccc3F)SCCCS2)c1=O | > 100 | – | > 100 | > 100 | > 100 µM | > 100 | > 100 | – | > 100 | > 100 µM | – | – | – | – | –
18 | COc1ccc(-c2cc(-c3ccc(C)cc3)n(C3OC(COC(C)=O)C(OC(C)=O)C(OC(C)=O)C3OC(C)=O)c(=S)c2C#N)cc1 (stereo not given) | > 100 | > 100 µM | > 100 | > 100 | > 100 µM | > 100 | > 100 | > 100 µM | > 100 | > 100 µM | – | – | – | – | –
19 | CC1=NNC(=O)C1C1(C(=O)O)CC(c2c[nH]c3ccccc23)=NC(=S)N1 (stereo not given) | > 100 | – | 37.9 | > 100 | 94.3 µM | > 100 | 34.1 | 73.9 µM | > 100 | – | – | – | – | – | –
20 | CC1OC(NCCNCCNC2OC(C)C(O)C(O)C2O)C(O)C(O)C1O (stereo not given) | > 100 | – | > 100 | – | > 100 µM | > 100 | > 100 | > 100 µM | > 100 | > 100 µM | – | – | – | – | –
21 | CC(=O)OCC1OC(n2c(C)c(C)cc(C#N)c2=S)C(OC(C)=O)C(OC(C)=O)C1OC(C)=O (stereo not given) | > 100 | > 100 µM | > 100 | – | > 100 µM | > 100 | – | > 100 µM | > 100 | > 100 µM | – | – | – | – | –
